The values that follow come from US10023562B2, “Heteroaryl substituted pyridyl compounds useful as kinase modulators” (BRISTOL-MYERS SQUIBB COMPANY, priority 2012, dated 2018).

pEC50, pIC50: −log10 of the molar value.

The subject of the first experiment is TLR2 induced IL-6 in peripheral blood mononuclear cells (PBMCs). Nature of the experiment: PBMC TLR2 Induced IL-6 Assay. As to conditions: Homo sapiens, PBMC, 5 h, 10 μg/ml lipoteichoic acid for 5 hours, IL-6 by ELISA, values marked * are EC50, read-out: Cell EC50 (values marked *). Format: cell-based. The procedure:
PBMC TLR2 Induced IL-6 Assay Peripheral blood mononuclear cells (PBMCs) were isolated from human blood containing the anti-coagulant EDTA (2.5 mM) by centrifugation over a FICOLL® gradient. […] At the end of the culture, plates were centrifuged at 1800 rpm for 10 minutes to pellet the cells. Supernatants were harvested and analyzed for IL-6 levels by ELISA (BD Biosciences, San Jose, Calif.).
As to `CC(C)(O)[C@H](F)CNC(=O)c1cnc(Nc2ncncc2Cl)cc1NC1CC1` [Example 105], the pEC50 was 6.47. Same read-out and setting: for `COc1cnc(Nc2cc(NC3CCC3)c(C(=O)NC[C@@H](F)C(C)(C)O)cn2)nc1` [Example 112] the value was 7.06; for `Cc1cnc(Nc2cc(NC(C)C)c(C(=O)NC[C@@H](F)C(C)(C)O)cn2)nc1` [Example 113], 6.25; for `CC(C)Nc1cc(Nc2nc(OC3CCNCC3)ncc2Cl)ncc1C(=O)NC[C@@H](F)C(C)(C)O` [Example 41], 6.80.

Consider `CC(C)Nc1cc(Nc2ncc(C#N)c(NC(C)C)n2)ncc1C(=O)NC[C@@H](F)C(C)(C)O` [Example 40], for which the pEC50 was 6.79. Turning to `CC(C)(O)[C@H](F)CNC(=O)c1cnc(Nc2ncc(C#N)cc2F)cc1Nc1cccc(CO)c1` [Example 122], the pEC50 is 7.25. `CC(C)(O)[C@H](F)CNC(=O)c1cnc(Nc2ccc(Cl)cn2)cc1NC1CC1` [Example 81]: the pEC50 is 7.02. `CC(C)(O)[C@H](F)CNC(=O)c1cnc(Nc2ncc(C#N)cn2)cc1NC1CCC(F)C1` (stereo partly drawn) [Example 86]: the pEC50 is 6.46. Take `CCn1ncc(Nc2cc(NC(C)C)c(C(=O)NC[C@@H](F)C(C)(C)O)cn2)n1` [Example 72]: the pEC50 is 6.61. Take `CC(C)(O)[C@H](F)CNC(=O)c1cnc(Nc2ncc(C#N)cc2Cl)cc1N[C@H]1CC[C@@](C)(O)CC1` [Example 152]: the pEC50 is 6.59.

Take `CC(C)(O)[C@H](F)CNC(=O)c1cnc(Nc2ncc(C#N)cc2Cl)cc1Nc1ccc(-n2cccn2)cc1` [Example 168]: the pEC50 was 6.91. Consider `CC(C)(O)[C@H](F)CNC(=O)c1cnc(Nc2nc(OC3CCNCC3)ncc2Cl)cc1NC1CC1` [Example 42], for which the pEC50 was 6.48. For `CS(=O)(=O)[C@H]1CC[C@H](NC(=O)c2cnc(Nc3ncc(C#N)cc3Cl)cc2NC2CCOCC2)CC1` [Example 149], the pEC50 is 6.71. On the same count and under the same terms, the value for `CC(C)(O)[C@H](F)CNC(=O)c1cnc(Nc2ncc(C#N)cc2F)cc1Nc1ccc(C(N)=O)cc1` [Example 142] was 7.03; that for `COC(=O)Cn1cc(Cl)c(Nc2cc(NC(C)C)c(C(=O)NC[C@@H](F)C(C)(C)O)cn2)n1` [Example 93] was 6.40; that for `CC(=O)N[C@H]1CC[C@H](NC(=O)c2cnc(Nc3ncncc3Cl)cc2NC(C)C)CC1` [Example 106] was 6.36. As for `COC(C)(C)[C@H](F)CNC(=O)c1cnc(Nc2ncc(C#N)cc2F)cc1NC(C)C` [Example 36], the pEC50 was 7.31. As for `CCCNc1cc(Nc2ncc(C#N)cc2F)ncc1C(=O)NC[C@@H](F)C(C)(C)O` [Example 139], the pEC50 was 6.94. The same measure, in the same setting: for `CC(C)(O)[C@H](F)CNC(=O)c1cnc(Nc2ncc(C#N)cc2F)cc1NC12CC3CC(CC(C3)C1)C2` [Example 119] the value was 6.13. Still for that read-out and setting: for `CC(C)(O)[C@H](F)CNC(=O)c1cnc(Nc2ncncc2Cl)cc1NC1CCOCC1` [Example 95] the value was 6.30; for `CC(C)Nc1cc(Nc2ncc(C#N)cc2Cl)ncc1C(=O)NC[C@H](F)C(C)(C)O` [Example 156], 6.91; for `CC(C)(O)C(F)(F)CNC(=O)c1cnc(Nc2ncc(C#N)cc2Cl)cc1NC1CC1` [Example 43, 6-((3-chloro-5-cyanopyridin-2-yl)amino)-4-(cyclopropylamino)-N-(2,2-difluoro-3-hydroxy-3-methylbutyl)nicotinamide], 6.77. Same read-out and setting: for `CC(=O)N[C@H]1CC[C@H](NC(=O)c2cnc(Nc3ncc(C#N)cc3Cl)cc2NC2CC2)CC1` [Example 67] the value was 6.34. As to `CC(C)(O)[C@H](F)CNC(=O)c1cnc(Nc2ncc(C#N)cc2F)cc1NC12CCC(O)(CC1)C2` [Example 133], the pEC50 is 7.07. Same read-out and setting: for `CC(C)(O)[C@H](F)CNC(=O)c1cnc(Nc2ncc(C#N)cc2Cl)cc1Nc1cccc(C(N)=O)c1` [Example 143] the value was 6.90. The same measure, in the same setting: for `CC(C)Nc1cc(Nc2ncc(C#N)cc2F)ncc1C(=O)N[C@H]1CC[C@H](S(C)(=O)=O)CC1` [Example 33, 6-((5-cyano-3-fluoropyridin-2-yl)amino)-4-(isopropylamino)-N-((1R,4R)-4-(methylsulfonyl)cyclohexyl)nicotinamide] the value was 6.83; for `CC(=O)N[C@H]1CC[C@H](NC(=O)c2cnc(Nc3ncc(C#N)cc3F)cc2NC2CC2)CC1` [Example 83], 6.11; for `CCNC(=O)[C@H]1CC[C@H](NC(=O)c2cnc(Nc3ncc(C#N)cc3F)cc2NC(C)C)CC1` [Example 30, 6-((5-cyano-3-fluoropyridin-2-yl)amino)-N-((1R,4R)-4-(ethylcarbamoyl)cyclohexyl)-4-(isopropylamino)nicotinamide], 6.79.

As to `CC(C)Nc1cc(Nc2ncc(F)cc2F)ncc1C(=O)NC[C@@H](F)C(C)(C)O` [Example 80], the pEC50 was 6.47. On the same count and under the same terms, for `CC(C)(O)[C@H](F)CNC(=O)c1cnc(Nc2ncc(C#N)cc2Cl)cc1Nc1ccc2ncsc2c1` [Example 153] the value was 6.36; for `CC(C)(O)[C@H](F)CNC(=O)c1cnc(Nc2ncc(C#N)cc2F)cc1NCC(F)(F)C(C)(C)O` [Example 126], 7.08. Regarding `CC(C)Nc1cc(Nc2ncc(C#N)cc2F)ncc1C(=O)NC1CCC(O)(c2ccnn2C)CC1` (stereo not drawn) [Example 166], the pEC50 is 6.69.

Staying with this experiment, now noted: Homo sapiens, PBMC, 5 h, 10 μg/ml lipoteichoic acid for 5 hours, IL-6 by ELISA, values without asterisk, read-out: Cell IC50.
`CC(C)Nc1cc(Nc2ccc(C#N)c(N3CCC(O)C3)n2)ncc1C(=O)NC[C@@H](F)C(C)(C)O` (stereo in doubt) [Example 27, 6-((5-cyano-6-((3S)-3-hydroxy-1-pyrrolidinyl)-2-pyridinyl)amino)-N-((2R)-2-fluoro-3-hydroxy-3-methylbutyl)-4-(isopropylamino)nicotinamide]: the pIC50 is 6.88. As to `CC(C)Nc1cc(Nc2ccnc(N3CCC(F)C3)n2)ncc1C(=O)NC[C@@H](F)C(C)(C)O` (stereo partly drawn) [Example 26, N-((2R)-2-fluoro-3-hydroxy-3-methylbutyl)-6-((2-(3-fluoro-1-pyrrolidinyl)-4-pyrimidinyl)amino)-4-(isopropylamino)nicotinamide], the pIC50 was 6.86. Consider `C[C@@H](CO)Nc1cc(Nc2ncc(C#N)cc2Cl)ncc1C(=O)NC[C@@H](F)C(C)(C)O` [Example 50], for which the pIC50 is 7.07. Turning to `CC(C)(O)CNc1cc(Nc2ncc(C#N)cc2Cl)ncc1C(=O)NC[C@@H](F)C(C)(C)O` [Example 48], the pIC50 was 6.43. Consider `CCNc1cc(Nc2ncc(C#N)cn2)ncc1C(=O)NC[C@@H](F)C(C)(C)O` [Example 58], for which the pIC50 was 6.72. Still for that read-out and setting: for `CC(=O)N1CCC(NC(=O)c2cnc(Nc3ccc(C#N)cn3)cc2NC(C)C)CC1` [Example 8, N-(1-acetyl-4-piperidinyl)-6-((5-cyano-2-pyridinyl)amino)-4-(isopropylamino)nicotinamide] the value was 6.36; for `CC(=O)N[C@H]1CC[C@H](NC(=O)c2cnc(Nc3ccc(C#N)cn3)cc2NC2CCOCC2F)CC1` (stereo partly drawn) [Example 11, N-((1R,4R)-4-acetamidocyclohexyl)-6-((5-cyanopyridin-2-yl)amino)-4-(((3 S,4R)-3-fluorotetrahydro-2H-pyran-4-yl)amino)nicotinamide], 6.49; for `CC(=O)N[C@H](C)CCNC(=O)c1cnc(Nc2ncc(C#N)cc2F)cc1NC(C)C` [Example 64], 6.35. As for `CC(C)(O)[C@H](F)CNC(=O)c1cnc(Nc2nc(-c3cccnc3)cs2)cc1NC1CC1` [Example 23, 4-(cyclopropylamino)-N-((2R)-2-fluoro-3-hydroxy-3-methylbutyl)-6-((4-(3-pyridinyl)-1,3-thiazol-2-yl)amino)nicotinamide], the pIC50 was 7.49. Turning to `CCC(C)Nc1cc(Nc2ncc(C#N)cn2)ncc1C(=O)NC[C@@H](F)C(C)(C)O` (stereo partly drawn) [Example 99], the pIC50 was 6.32. Same read-out and setting: for `CC(C)Nc1cc(Nc2ncncc2Cl)ncc1C(=O)NC[C@@H](F)C(C)(C)O` [Example 52] the value was 7.13; for `CC(C)Nc1cc(Nc2ccc(C#N)cn2)ncc1C(=O)N[C@H]1CC[C@H](C(=O)N[C@H]2C[C@H]2F)CC1` [Example 7, 6-((5-cyano-2-pyridinyl)amino)-N-(trans-4-(((1S,2R)-2-fluorocyclopropyl)carbamoyl)cyclohexyl)-4-(isopropylamino)nicotinamide], 6.10; for `CC(C)Nc1cc(Nc2ncc(C#N)cn2)ncc1C(=O)NC[C@@H](F)C(C)(C)O` [Example 22, 6-((5-cyano-2-pyrimidinyl)amino)-N-((2R)-2-fluoro-3-hydroxy-3-methylbutyl)-4-(isopropylamino)nicotinamide], 6.47. Same read-out and setting: for `CNC(=O)[C@H]1CC[C@H](NC(=O)c2cnc(Nc3ncc(C#N)cc3F)cc2NC2CCOCC2)CC1` [Example 61] the value was 6.74; for `CC(C)Nc1cc(Nc2ncc(C#N)cc2F)ncc1C(=O)NC[C@@H](F)C(C)(C)O` [Example 17, 6-((5-cyano-3-fluoro-2-pyridinyl)amino)-N-((2R)-2-fluoro-3-hydroxy-3-methylbutyl)-4-(isopropylamino)nicotinamide], 6.42. On to `CC(C)(O)[C@H](F)CNC(=O)c1cnc(Nc2ncc(C#N)cn2)cc1NC1CCC(F)C1` (stereo partly drawn) [Example 56], for which the pIC50 is 7.39. Take `CC(C)(O)[C@H](F)CNC(=O)c1cnc(Nc2ncncc2Cl)cc1NC1CCCOC1` (stereo partly drawn) [Example 96]: the pIC50 is 5.81.

The same experiment, now with this note: human PBMC, 10 μg/ml lipoteichoic acid for 5 hours, IL-6 by ELISA; values marked * are EC50; read-out: Cell EC50 (values marked *).
In the case of `Cc1cnc(Nc2cc(NC(C)C)c(C(=O)NC[C@@H](F)C(C)(C)O)cn2)c(F)c1` [Example 129], the pEC50 was 6.40.

Still in this experiment, the particulars now being: human PBMC, 10 μg/ml lipoteichoic acid for 5 hours, IL-6 by ELISA; values without asterisk; read-out: Cell IC50.
Turning to `CC(C)(O)[C@H](F)CNC(=O)c1cnc(Nc2ncc(C#N)cc2F)cc1NC1CCCOC1` (stereo partly drawn) [Example 98], the pIC50 is 6.16.

As usually defined, the pEC50 is the negative decadic logarithm of the EC50, by convention in mol/L. In general, pIC50 refers to −log10 of the IC50, conventionally taken in molar units.
